# Experimental data reported in the supplement of paper PMC11061612.
# Legend:
# Assay in all cases: combination Emax (second highest fraction inhibited in the dose matrix, 72 h); higher = more inhibition; extreme values may be limits of the assay
# [1] = test system: Ca-Ski (Cervical Carcinoma)
# Summary of the method: (§1)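 Bliss excess equals the observed combination effect minus the expected value EA + EB − EA·EB, where EA and EB are the effects of each agent alone. Combination Emax is the second-highest inhibition within the matrix. Inhibition was scaled from CellTiter-Glo 2.0 luminescence, with 0 set by vehicle wells and 1 by blank wells, after 72 hours of two-drug dosing of cells plated in 1536-well plates.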
# [2] = test system: KGN (Other Solid Carcinomas)
# Summary of the method: as §1
# [3] = test system: HCC1500 (Breast Carcinoma)
# Summary of the method: as §1
# [4] = test system: HAL-01 (B-Lymphoblastic Leukemia)
# Summary of the method: as §1
# [5] = test system: KMRC-1 (Kidney Carcinoma)
# Summary of the method: as §1
# [6] = test system: ML-2 (Acute Myeloid Leukemia)
# Summary of the method: as §1
# [7] = test system: MOLT-4 (T-Lymphoblastic Leukemia)
# Summary of the method: as §1
# [8] = test system: EW-1 (Ewing's Sarcoma)
# Summary of the method: as §1
# [9] = test system: Mo-T (Other Blood Carcinomas)
# Summary of the method: as §1
# [10] = test system: MV-4-11 (Acute Myeloid Leukemia)
# Summary of the method: as §1
# [11] = test system: SNU-387 (Hepatocellular Carcinoma)
# Summary of the method: as §1
# [12] = test system: NCI-H1838 (Lung Adenocarcinoma)
# Summary of the method: as §1
# [13] = test system: NCI-H650 (Lung Adenocarcinoma)
# Summary of the method: as §1
# [14] = test system: G-401 (Other Solid Carcinomas)
# Summary of the method: as §1
# [15] = test system: EJM (Plasma Cell Myeloma)
# Summary of the method: as §1
# [16] = test system: KOPN-8 (B-Lymphoblastic Leukemia)
# Summary of the method: as §1
# [17] = test system: SW982 (Other Solid Carcinomas)
# Summary of the method: as §1
# [18] = test system: COLO-679 (Melanoma)
# Summary of the method: as §1
# [19] = test system: ME-180 (Cervical Carcinoma)
# Summary of the method: as §1
# [20] = test system: EFO-21 (Ovarian Carcinoma)
# Summary of the method: as §1
smiles,measurement,setting,value
"COc1cccc2c1C(=O)c1c(O)c3c(c(O)c1C2=O)C[C@@](O)(C(=O)CO)C[C@@H]3O[C@H]1C[C@H](N)[C@H](O)[C@H](C)O1 [Doxorubicin] + Cc1cc2ncnn2cc1Nc1ncc2c(n1)n(C1CCOCC1)c(=O)n2C [AZD7648] (first compound max 1 µM, 7x7, partner max 10 µM)",combination Emax,[1],0.913
same,combination Emax,[2],0.901
same,combination Emax,[3],0.887
same,combination Emax,[4],0.986
same,combination Emax,[5],0.518
same,combination Emax,[6],0.913
same,combination Emax,[7],1
same,combination Emax,[8],0.952
same,combination Emax,[9],0.871
same,combination Emax,[10],1
same,combination Emax,[11],0.65
same,combination Emax,[12],0.559
same,combination Emax,[13],0.334
same,combination Emax,[14],0.938
same,combination Emax,[15],0.903
same,combination Emax,[16],0.916
same,combination Emax,[17],0.884
same,combination Emax,[18],0.959
same,combination Emax,[19],0.958
same,combination Emax,[20],0.482
